Measurements: US9157105B2, “Biosynthesis of CMP-legionaminic acid from fructose-6-P, and respective pathway intermediates, using novel GDP-linked precursors” (priority 2008, dated 2015)

Legend:
[1] = molecular target: T1, His6LegG (Cj1328, NDP-sugar hydrolase/2-epimerase) (Campylobacter jejuni subsp. jejuni serotype O:2, UniProt Q0P8T0); assay: His6LegG activity and substrate flexibility (1H NMR, CE); assay type: biochemical, Campylobacter jejuni 11168; details: 4 μg LegG, 0.75 mM substrate, 25° C., in-tube 1H NMR
T1 construct: made in house; host or cells: E. coli BL21[DE3]
T1 sequence (Q0P8T0 whole entry): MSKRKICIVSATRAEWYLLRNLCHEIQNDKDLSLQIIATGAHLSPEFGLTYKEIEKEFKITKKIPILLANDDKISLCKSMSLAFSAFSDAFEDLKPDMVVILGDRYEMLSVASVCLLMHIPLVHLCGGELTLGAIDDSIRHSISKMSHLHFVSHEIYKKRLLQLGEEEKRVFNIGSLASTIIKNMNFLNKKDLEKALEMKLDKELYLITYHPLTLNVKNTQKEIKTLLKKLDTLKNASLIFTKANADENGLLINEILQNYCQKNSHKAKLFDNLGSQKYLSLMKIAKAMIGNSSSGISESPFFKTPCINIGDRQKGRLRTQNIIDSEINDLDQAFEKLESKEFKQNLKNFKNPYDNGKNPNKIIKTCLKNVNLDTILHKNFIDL
Description: Enzymatic reactions were performed for 4.5 h at 37° C., and then overnight at 25° C., with approximately 200 μg ml^−1 respective protein concentration using chemicals from Sigma (unless otherwise indicated). GDP-glucosamine biosynthesis. The ‘one-pot’ enzymatic synthesis of GDP-GlcN from Fru-6-P (I→IV) was accomplished using a 3 ml reaction containing His6PtmF, PtmAHis6, PgmLHis6, His6PtmE, 5 mM Fru-6-P (I), 10 mM L-Gln, 1 mM DTT, 5 mM MgCl2, 0.8 U ml^−1 pyrophosphatase, and 2.5 mM GTP in 25 mM Tris pH 7.5. Large-scale enzymatic synthesis of GDP-GlcN (IV) was accomplished using a 12 ml reaction containing 50 mM Tris pH 7.5, 1 mM GTP, 1 mM MgCl2, 0.8 U ml^−1 pyrophosphatase, 1.2 mM GlcN-1-P (III) and approximately 4.8 mg of His6PtmE. The large-scale enzymatic synthesis of GDP-GlcNAc was performed similar to that above, except the scale was increased five-fold and GlcNAc-1-P was used in place of GlcN-1-P (III). Assessment of His6PtmE substrate specificity was accomplished using 9 reactions, 80 μl each, containing 50 mM Tris pH 7.5, 2 mM MgCl2, 50 μg His6PtmE, and various combinations of 10 mM sugar-1-P (GalN-1-P, GlcN-1-P or GlcNAc-1-P) and 0.2 mM NTP (CTP, GTP, or TTP). Conversion of GDP-GlcN to GDP-GlcNAc. The His6GlmU reaction was performed using 1 mM GDP-GlcN (IV), 1.2 mM acetyl-CoA and His6GlmU in 25 mM sodium phosphate pH 7.8, 25 mM NaCl, 10 mM β-mercaptoethanol. In addition, a control reaction was performed containing 1 mM GlcN-1-P (III) instead of IV. Biosynthesis of legionaminic acid from GDP-GlcNAc. The stepwise enzymatic synthesis of intermediates or products was accomplished in 2 stages (V→VI→VII→VIII, and then VIII→IX→X) using 1 mM of V, 0.5 mM NAD, 0.8 mM PLP, 8 mM L-Glu, 1.2 mM acetyl-CoA, 1.2 mM PEP, LegBHis6, His6LegC, His6LegH, His6LegG, and His6LegI as appropriate, in 25 mM sodium phosphate pH 7.3, 25 mM NaCl. Assessment of His6LegG activity involved monitoring the reaction kinetics by ^1H NMR (see NMR spectroscopy) for 75 min using 0.75 mM GDP-2,4-diacetamido-2,4,6-trideoxy-α-D-Glc (VIII), 4 μg His6LegG in 200 μl of 25 mM sodium phosphate pH 7.3, 25 mM NaCl at 25° C. In addition, the substrate flexibility of His6LegG was assessed using a 300 μl reaction containing 40 μg His6LegG, 25 mM sodium phosphate pH 7.3, 25 mM NaCl, and 0.75 mM UDP-2,4-diacetamido-2,4,6-trideoxy-α-D-Glc, with incubation at 37° C. for 1.5 h, and then overnight at 25° C. Biosynthesis of CMP-legionaminic acid. […] Quantification of NDP-sugar preparations was determined using the molar extinction coefficients of CMP (ε260=7,400), GDP (ε260=11,500), TDP (ε260=8,700), and UDP (ε260=10,000). […]

[2] = system: His6PtmE (Cj1329, nucleotidyltransferase); assay: His6PtmE substrate specificity (sugar-1-P acceptors and NTP donors); assay type: biochemical, Campylobacter jejuni 11168
Description: […] GDP-glucosamine biosynthesis. The ‘one-pot’ enzymatic synthesis of GDP-GlcN from Fru-6-P (I→IV) was accomplished using a 3 ml reaction containing His6PtmF, PtmAHis6, PgmLHis6, His6PtmE, 5 mM Fru-6-P (I), 10 mM L-Gln, 1 mM DTT, 5 mM MgCl2, 0.8 U ml^−1 pyrophosphatase, and 2.5 mM GTP in 25 mM Tris pH 7.5. Large-scale enzymatic synthesis of GDP-GlcN (IV) was accomplished using a 12 ml reaction containing 50 mM Tris pH 7.5, 1 mM GTP, 1 mM MgCl2, 0.8 U ml^−1 pyrophosphatase, 1.2 mM GlcN-1-P (III) and approximately 4.8 mg of His6PtmE. The large-scale enzymatic synthesis of GDP-GlcNAc was performed similar to that above, except the scale was increased five-fold and GlcNAc-1-P was used in place of GlcN-1-P (III). Assessment of His6PtmE substrate specificity was accomplished using 9 reactions, 80 μl each, containing 50 mM Tris pH 7.5, 2 mM MgCl2, 50 μg His6PtmE, and various combinations of 10 mM sugar-1-P (GalN-1-P, GlcN-1-P or GlcNAc-1-P) and 0.2 mM NTP (CTP, GTP, or TTP). Conversion of GDP-GlcN to GDP-GlcNAc. The His6GlmU reaction was performed using 1 mM GDP-GlcN (IV), 1.2 mM acetyl-CoA and His6GlmU in 25 mM sodium phosphate pH 7.8, 25 mM NaCl, 10 mM β-mercaptoethanol. In addition, a control reaction was performed containing 1 mM GlcN-1-P (III) instead of IV. Biosynthesis of legionaminic acid from GDP-GlcNAc. The stepwise enzymatic synthesis of intermediates or products was accomplished in 2 stages (V→VI→VII→VIII, and then VIII→IX→X) using 1 mM of V, 0.5 mM NAD, 0.8 mM PLP, 8 mM L-Glu, 1.2 mM acetyl-CoA, 1.2 mM PEP, LegBHis6, His6LegC, His6LegH, His6LegG, and His6LegI as appropriate, in 25 mM sodium phosphate pH 7.3, 25 mM NaCl. Assessment of His6LegG activity involved monitoring the reaction kinetics by ^1H NMR (see NMR spectroscopy) for 75 min using 0.75 mM GDP-2,4-diacetamido-2,4,6-trideoxy-α-D-Glc (VIII), 4 μg His6LegG in 200 μl of 25 mM sodium phosphate pH 7.3, 25 mM NaCl at 25° C. In addition, the substrate flexibility of His6LegG was assessed using a 300 μl reaction containing 40 μg His6LegG, 25 mM sodium phosphate pH 7.3, 25 mM NaCl, and 0.75 mM UDP-2,4-diacetamido-2,4,6-trideoxy-α-D-Glc, with incubation at 37° C. for 1.5 h, and then overnight at 25° C. Biosynthesis of CMP-legionaminic acid. The CMP-activation of legionaminic acid (X→XI) was performed using a 20 ml reaction containing approximately 0.2 mM of X, 50 mM MgCl2, 3 mM CTP, and 15 mg of LegFHis6 in 25 mM sodium phosphate pH 7.8, 25 mM NaCl, with incubation at 37° C. for 5 h, and then 25° C. for 72 h. Metabolite purification. Typically, reactions were passed through an Amicon Ultra-15 (10,000 molecular weight cut-off) or Ultra-4 (5,000 molecular weight cut-off) filter membrane before analysis. As required, NDP-sugar preparations (GDP-Glc, GDP-GlcN, GDP-GlcNAc, CDP-GlcNAc, TDP-GlcNAc, and CMP-Leg) were lyophilized and desalted/purified using a Superdex Peptide 10/300 GL (Amersham Biosciences) column in 25 mM ammonium bicarbonate, pH 7.9. For further purity, the NDP-sugar samples above were subjected to anion-exchange chromatography (Mono Q 4.6/100 PE, Amersham Biosciences) using ammonium bicarbonate pH 7.9. Quantification of NDP-sugar preparations was determined using the molar extinction coefficients of CMP (ε260=7,400), GDP (ε260=11,500), TDP (ε260=8,700), and UDP (ε260=10,000).
CE analysis was performed using either a P/ACE 5510 or P/ACE MDQ system (Beckman Instruments, Mississauga, Ont) with diode array detection. The capillaries were bare silica 50 μm×50 cm, with a detector at 50 cm, and the running buffer was 25 mM sodium tetraborate pH 9.4. Samples were introduced by pressure injection for 6 sec, and the separation was performed at 18 kV for 20 min. Peak integration was done using the Beckman P/ACE station software.

| Compound | time to near completion of formation of IX by LegG [1] [min] | PtmE activity with sugar-1-P acceptor ([2]; 10 mM sugar-1-P, 0.2 mM NTP, 30 min at 37° C.) | PtmE NTP donor specificity with this sugar acceptor ([2]; NTP = CTP, GTP or TTP) |
| --- | --- | --- | --- |
| CC(=O)N[C@H]1[C@@H](OP(=O)(O)OP(=O)(O)OC[C@H]2O[C@@H](n3cnc4c(=O)[nH]c(N)nc43)[C@H](O)[C@@H]2O)O[C@H](C)[C@@H](NC(C)=O)[C@@H]1O [VIII, GDP-2,4-diacetamido-2,4,6-trideoxy-α-D-glucose] | ≤ 75 |  |  |
| CC(=O)N[C@H]1[C@@H](OP(=O)(O)O)O[C@H](CO)[C@@H](O)[C@@H]1O [GlcNAc-1-P, N-acetyl-α-D-glucosamine-1-phosphate] |  | activity was observed | exhibited promiscuity with respect to activator NTP donors |
